Data reported in patent publication US8865734B2 (priority 2010, dated 2014).
In brackets after ≈: the same amount, converted by molar mass. Where two headings read alike, the source gives them in different places.

Tests used:
[1] = system: in vitro grown Mycobacteria (M. tuberculosis); assay: QUM: Quantification of in vitro grown Mycobacteria (in vitro growth fluorescence assay); format: cell-based; details: Mycobacterium tuberculosis
Source text: (§1) A 120,000 small molecule compound library was screened using a validated phenotypic cell-based assay (WO2010003533A2). Active compounds from the primary screen were confirmed via dose response in the intracellular (QIM) assay and an in vitro (QUM) assay, wherein the abbreviation “QIM” stands for Quantification of Intracellular Mycobacteria and the abbreviation “QUM” stands for Quantification of in vitro grown Mycobacteria. […] The MIC is the minimum concentration of compound required to obtain 80% bacterial growth inhibition.
(§2) The imidazopyridine compounds (scaffolds Ia and Ib; see Table 1) underwent derivatization according to the methods outlined below (Schemes 1-13). Resulting derivatives were examined for inhibitory activity (MIC) using the assays described above (Example 1) and the results are summarized in Table 1.

[2] = system: M. tuberculosis inside the host macrophage; assay: QIM: Quantification of Intracellular Mycobacteria (intracellular growth assay, phenotypic cell-based); details: Mycobacterium tuberculosis
Source text: Accordingly, a phenotypic cell-based assay, suitable for high throughput screening, which allows for the search of compounds that would prevent M. tuberculosis multiplication inside the host macrophage was utilized (WO2010003533A2), overcoming many of the numerous and burdensome steps involved in previous methodologies (Arain et al., 1996).
as §1, §2

[3] = MIC, 80% bacterial growth inhibition, in vitro growth, read-out: QUM
[4] = MIC, 80% bacterial growth inhibition, intracellular growth, read-out: QIM

Row | Compound | MIC [1, 3] | MIC [2, 4] | other results
1 | Cc1nc2ccccn2c1C(=O)O [Compound 1, 2-Methylimidazo[1,2-a]pyridine-3-carboxylic acid] | > 20 µM | > 20 µM | –
2 | CCOC(=O)c1c(C)nc2cc(-c3ccccc3)ccn12 [Compound 2, Ethyl 2-methyl-7-phenylimidazo[1,2-a]pyridine-3-carboxylate] | > 20 µM | > 20 µM | –
3 | Cc1nc2cc(-c3ccccc3)ccn2c1C(=O)O [Compound 3, 2-Methyl-7-phenylimidazo[1,2-a]pyridine-3-carboxylic acid] | > 20 µM | > 20 µM | –
4 | CCOC(=O)c1c(C)nc2ccc(-c3ccccc3)cn12 [Compound 4, Ethyl 2-methyl-6-phenylimidazo[1,2-a]pyridine-3-carboxylate] | > 20 µM | > 20 µM | –
5 | Cc1nc2ccccn2c1C(=O)Nc1ccncc1 [Compound 5, 2-Methyl-N-(pyridin-4-yl)imidazo[1,2-a]pyridine-3-carboxamide] | > 20 µM | > 20 µM | –
6 | Cc1nc2ccccn2c1C(=O)Nc1ccc(Oc2ccccc2)cc1 [Compound 6, 2-Methyl-N-(4-phenoxyphenyl)imidazo[1,2-a]pyridine-3-carboxamide] | > 20 µM | > 20 µM | –
7 | Cc1nc2ccccn2c1C(=O)Nc1ccc(OCc2ccccc2)cc1 [Compound 7, N-(4-(Benzyloxy)phenyl)-2-methylimidazo[1,2-a]pyridine-3-carboxamide] | > 20 µM | > 20 µM | –
8 | Cc1nc2ccccn2c1C(=O)NCc1ccccc1 [Compound 8, N-Benzyl-2-methylimidazo[1,2-a]pyridine-3-carboxamide] | – | – | MIC ([1]; read-out: QUM (μM)): > 20 µM; MIC ([1]; dose response confirmation, 80% bacterial growth inhibition, read-out: minimum inhibitory concentration (MIC), QUM assay): 5 µM (≈ 1.33 µg/mL); MIC ([2]; read-out: QIM (μM)): 1 to 20 µM (≈ 0.265 to 5.31 µg/mL); MIC ([2]; dose response confirmation, 80% bacterial growth inhibition, read-out: minimum inhibitory concentration (MIC), QIM assay): 2.5 µM (≈ 0.663 µg/mL)
9 | Cc1nc2ccccn2c1C(=O)NCc1ccc(F)cc1 [Compound 9, N-(4-Fluorobenzyl)-2-methylimidazo[1,2-a]pyridine-3-carboxamide] | > 20 µM | > 20 µM | –
10 | COC(=O)c1ccc(CNC(=O)c2c(C)nc3ccccn23)cc1 [Compound 10, Methyl 4-((2-me3thylimidazo[1,2-a]pyridine-3-carboxamido)methyl)benzoate] | 1 to 20 µM (≈ 0.323 to 6.47 µg/mL) | > 20 µM | –
11 | Cc1nc2ccccn2c1C(=O)NCc1ccc(C(=O)O)cc1 [Compound 11, 4-((2-Methylimidazo[1,2-a]pyridine-3-carboxamido)methyl)benzoic acid] | > 20 µM | > 20 µM | –
12 | COc1ccc(CNC(=O)c2c(C)nc3ccccn23)cc1 [Compound 12, N-(4-Methoxybenzyl)-2-methylimidazo[1,2-a]pyridine-3-carboxamide] | 1 to 20 µM (≈ 0.295 to 5.91 µg/mL) | 1 to 20 µM (≈ 0.295 to 5.91 µg/mL) | –
13 | Cc1nc2ccccn2c1C(=O)NCc1cccnc1 [Compound 13, 2-Methyl-N-(pyridin-3-ylmethyl)imidazo[1,2-a]pyridine-3-carboxamide] | > 20 µM | > 20 µM | –
14 | Cc1nc2ccccn2c1C(=O)NCc1ccncc1 [Compound 14, 2-Methyl-N-(pyridin-4-ylmethyl)imidazo[1,2-a]pyridine-3-carboxamide] | > 20 µM | > 20 µM | –
15 | Cc1nc2ccccn2c1C(=O)NCc1ccc(Oc2ccccc2)cc1 [Compound 15, 2-Methyl-N-(4-phenoxybenzyl)imidazo[1,2-a]pyridine-3-carboxamide] | 1 to 20 µM (≈ 0.357 to 7.15 µg/mL) | < 1 µM | –
16 | Cc1nc2ccccn2c1C(=O)NCc1ccc(-c2ccccc2)cc1 [Compound 16, N-(Biphenyl-4-ylmethyl)-2-methylimidazo[1,2-a]pyridine-3-carboxamide] | < 1 µM | < 1 µM | –

Row | Compound | MIC [1, 3] | MIC [2, 4] | other results
17 | Cc1nc2ccccn2c1C(=O)NCc1ccc2[nH]ccc2c1 [Compound 17, N-((1H-Indol-5-yl)methyl)-2-methylimidazo[1,2-a]pyridine-3-carboxamide] | 1 to 20 µM (≈ 0.304 to 6.09 µg/mL) | 1 to 20 µM (≈ 0.304 to 6.09 µg/mL) | –
18 | Cc1nc2ccccn2c1C(=O)NCC1CCCCC1 [Compound 18, N-(Cyclohexylmethyl)-2-methylimidazo[1,2-a]pyridine-3-carboxamide] | > 20 µM | > 20 µM | –
19 | Cc1nc2ccccn2c1C(=O)NCC1CCN(C(=O)OC(C)(C)C)CC1 [Compound 19, tert-Butyl 4-((2-methylimidazo[1,2-a]pyridine-3-carboxamido)methyl)piperidine-1-carboxylate] | > 20 µM | > 20 µM | –
20 | Cc1nc2ccccn2c1C(=O)NCC1CCNCC1 [Compound 20, 2-Methyl-N-(piperidin-4-ylmethyl)imidazo[1,2-a]pyridine-3-carboxamide] | > 20 µM | > 20 µM | –
21 | Cc1nc2ccccn2c1C(=O)NCCc1ccccc1 [Compound 21, 2-Methyl-N-phenethylimidazo[1,2-a]pyridine-3-carboxamide] | > 20 µM | > 20 µM | –
22 | COc1ccc(CCNC(=O)c2c(C)nc3ccccn23)cc1 [Compound 22, N-(4-Methoxyphenethyl)-2-methylimidazo[1,2-a]pyridine-3-carboxamide] | > 20 µM | > 20 µM | –
23 | Cc1nc2ccccn2c1C(=O)NCCOc1ccccc1 [Compound 23, 2-Methyl-N-(2-phenoxyethyl)imidazo[1,2-a]pyridine-3-carboxamide] | 1 to 20 µM (≈ 0.295 to 5.91 µg/mL) | 1 to 20 µM (≈ 0.295 to 5.91 µg/mL) | –
24 | Cc1nc2ccccn2c1C(=O)NCCOCc1ccccc1 [Compound 24, N-(2-(Benzyloxy)ethyl)-2-methylimidazo[1,2-a]pyridine-3-carboxamide] | > 20 µM | > 20 µM | –
25 | COC(=O)[C@H](Cc1ccccc1)NC(=O)c1c(C)nc2ccccn12 [Compound 25, (S)-Methyl 2-(2-methylimidazo[1,2-a]pyridine-3-carboxamido)-3-phenylpropanoate] | > 20 µM | > 20 µM | –
26 | Cc1nc2ccccn2c1NC(=O)Cc1ccccc1 [Compound 26, N-(2-Methylimidazo[1,2-a]pyridin-3-yl)-2-phenylacetamide] | > 20 µM | > 20 µM | –
27 | CCc1nc2cc(Cl)ccn2c1C(=O)NCc1ccc(N2CCC(C(=O)N(C)C)CC2)cc1 [Compound 346, 7-Chloro-N-(4-(4-(dimethylcarbamoyl)piperidin-1-yl)benzyl)-2-ethylimidazo[1,2-a]pyridine-3-carboxamide] | < 1 µM | – | –
28 | CCc1nc2ccc(Cl)cn2c1C(=O)NCc1ccc(N2CCC(OCc3ccc(F)cc3)CC2)cc1 [Compound 347, 6-Chloro-2-ethyl-N-(4-(4-(4-fluorobenzyloxy)piperidin-1-yl)benzyl)imidazo[1,2-a]pyridine-3-carboxamide] | < 1 µM | – | –
29 | CCc1nc2cc(Cl)ccn2c1C(=O)NCc1ccc(N2CCC(OCc3ccc(F)cc3)CC2)cc1 [Compound 348, 7-Chloro-2-ethyl-N-(4-(4-(4-fluorobenzyloxy)piperidin-1-yl)benzyl)imidazo[1,2-a]pyridine-3-carboxamide] | 1 to 20 µM (≈ 0.521 to 10.4 µg/mL) | – | –
30 | CCc1nc2cc(Cl)ccn2c1C(=O)NCc1ccc(N2CCOCC2)c(Cl)c1 [Compound 350, 7-Chloro-N-(3-chloro-4-morpholinobenzyl)-2-ethylimidazo[1,2-a]pyridine-3-carboxamide] | < 1 µM | – | –
31 | CCc1nc2ccc(Cl)cn2c1C(=O)NCc1ccc(N2CCC(C=O)CC2)cc1 [Compound 351, 6-Chloro-2-ethyl-N-(4-(4-formylpiperidin-1-yl)benzyl)imidazo[1,2-a]pyridine-3-carboxamide] | < 1 µM | – | –
32 | CCc1nc2cc(Cl)ccn2c1C(=O)NCc1ccc(N2CCC(C=O)CC2)cc1 [Compound 352, 7-Chloro-2-ethyl-N-(4-(4-formylpiperidin-1-yl)benzyl)imidazo[1,2-a]pyridine-3-carboxamide] | < 1 µM | – | –
